For test [1], the system named is IMR-90. Briefly: 72-h MTT cytotoxicity assay IMR-90. The class given is cell-based. Conditions: Homo sapiens, IMR-90, 72 h; Table 5; Foetal lung fibroblast (non-transformed). The protocol:
(§1) MTT cytotoxicity assay. […] Standard 72-h MTT (thiazolyl blue; 3-[4,5-dimethylthiazol-2-yl]-2,5-diphenyltetrazolium bromide) assays were performed (Haselsberger, K.; Peterson, D. C.; Thomas, D. G.; Darling, J. L. Anti Cancer Drugs 1996, 7, 331-8; Loveland, B. E.; Johns, T. G.; Mackay, I. R.; Vaillant, F.; Wang, Z. X.; Hertzog, P. J. Biochemistry International 1992, 27, 501-10). In short: cells were seeded into 96-well plates according to doubling time and incubated overnight at 37° C. Test compounds were made up in DMSO and a 1/3 dilution series prepared in 100 μL cell media, added to cells (in triplicates) and incubated for 72 ho at 37° C. MTT was made up as a stock of 5 mg/mL in cell media and filter-sterilised. Media was removed from cells followed by a wash with 200 μL PBS.
(§2) MTT solution was then added at 20 μL per well and incubated in the dark at 37° C. for 4 h. MTT solution was removed and cells again washed with 200 μL PBS. MTT dye was solubilised with 200 μL per well of DMSO with agitation.

Test [2] has as its system HCT-116. Description: 72-h MTT cytotoxicity assay HCT-116. The class given is cell-based. Conditions: Homo sapiens, HCT-116, 72 h; Table 5; Colon. The method, then:
as §1, §2

Test [3] relates to Lovo. Description: 72-h MTT cytotoxicity assay Lovo. Type of test: cell-based. Conditions: Homo sapiens, Table 5, Colon. The method, then: as §1, §2
The test system of test [4] is SJSA-1. Briefly: 72-h MTT cytotoxicity assay SJSA-1. Type of test: cell-based. As to conditions: Homo sapiens, SJSA-1, 72 h; Table 5; Osteogenic sarcoma. The method, then: as §1, §2
The test system of test [5] is HL60. Briefly: 72-h MTT cytotoxicity assay HL60. The class given is cell-based. As to conditions: Homo sapiens, HL-60, 72 h; Table 5; Promyelocytic leukaemia. The protocol:
as §1, §2

The target in test [6] is T1, ARK-2: aurora kinase-2 (aurora A kinase) (Homo sapiens, UniProt O14965).
T1 construct: purchased
T1 sequence (O14965 whole entry): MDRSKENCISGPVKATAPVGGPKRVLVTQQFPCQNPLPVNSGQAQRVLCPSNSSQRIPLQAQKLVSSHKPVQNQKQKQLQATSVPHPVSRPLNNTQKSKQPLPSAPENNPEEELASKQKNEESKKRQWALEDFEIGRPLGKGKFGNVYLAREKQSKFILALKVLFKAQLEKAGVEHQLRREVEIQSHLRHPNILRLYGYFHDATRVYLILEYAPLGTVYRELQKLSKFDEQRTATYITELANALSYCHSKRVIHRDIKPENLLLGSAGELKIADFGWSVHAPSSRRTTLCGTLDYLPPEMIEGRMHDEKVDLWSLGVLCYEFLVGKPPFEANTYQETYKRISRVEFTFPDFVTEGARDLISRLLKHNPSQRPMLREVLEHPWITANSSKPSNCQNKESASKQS
Briefly: Aurora-A (human) kinase assay. As to conditions: Table 2; 15 μM ATP; read-out: Kinase Inhibition IC50 ARK-2. Type of test: biochemical. The protocol:
Aurora-A (human) kinase assay. This was achieved by measurement of incorporation of radioactive phosphate from ATP into Kemptide substrate (LRRASLG), upon phosphorylation by commercially obtained aurora-A kinase. Assays were performed using 96-well plates and appropriate assay buffers (8 mM MOPS, 0.2 mM EDTA, pH 7.0), into which were added 5-10 ng of active enzyme with 200 μM substrate (Kemptide). […] Reactions were stopped by addition of 3% phosphoric acid, followed by filtration through p81 filterplates (Whatman Polyfiltronics, Kent, UK). After washing 5 times with 75 mM aq orthophosphoric acid and once in methanol, plates were dried, scintillant added and incorporated radioactivity measured in a scintillation counter (TopCount, Packard Instruments, Pangbourne, Berks, UK). Compounds for kinase assay were made up as 10 mM stocks in DMSO and diluted into 10% DMSO in assay buffer.

We go through four molecules from patent US7432260B2, “Pyrimidine compounds” (Cyclacel Limted, priority 2002, dated 2008).

A value given as a limit tells only on which side of the number the result lay.

Take `Cc1nc(N)sc1-c1ccnc(Nc2ccc(N3CCOCC3)cc2)n1` [Compound 1, [4-(2-Amino-4-methyl-thiazol-5-yl)-pyrimidin-2-yl]-(4-morpholin-4-yl-phenyl)-amine]: the IC50 was above 5000 nM in test [1]; 900 nM in test [2]; 900 nM in test [3]; above 5000 nM in test [4]; 1800 nM in test [5].
As for `CNc1nc(C)c(-c2ccnc(Nc3ccc(N4CCN(Cc5ccccc5)CC4)cc3)n2)s1` [Compound 11, [4-(4-Benzyl-piperazin-1-yl)-phenyl]-[4-(4-methyl-2-methylamino-thiazol-5-yl)-pyrimidin-2-yl]-amine], the 50% inhibitory concentration (IC50) in test [1] turned out to be 31000 nM; in test [2], 600 nM; in test [3] it was 2000 nM; in test [4], 4300 nM; in test [5], 1700 nM.
On to `Cc1nc(NC(=O)[C@H](N)[C@@H](C)O)sc1-c1ccnc(Nc2cccc([N+](=O)[O-])c2)n1` [Compound 15, (2R,3R)-2-Amino-3-hydroxy-N-{4-methyl-5-[2-(3-nitro-phenylamino)-pyrimidin-4-yl]-thiazol-2-yl}-butyramide], for which the concentration for half-maximal inhibition (IC50) in test [1] was 2500 nM; in test [2], 600 nM; in test [3] it was 700 nM; in test [4], 1900 nM; in test [5], 2200 nM.
As for `CC[C@@H](N)C(=O)Nc1nc(C)c(-c2ccnc(Nc3cccc([N+](=O)[O-])c3)n2)s1` [Compound 16, (2R)-2-Amino-N-{4-methyl-5-[2-(3-nitro-phenylamino)-pyrimidin-4-yl]-thiazol-2-yl}-butyramide], the IC50 in test [6] was 2800 nM; in test [1], 1700 nM; in test [2], 300 nM; in test [3], 300 nM; in test [4], 1000 nM; in test [5], 600 nM.
